Test systems include XF 498 CNS; SNB-78 CNS; HOP-18 NSCLC; DLD-1 colon; KM20L2 colon; M19-MEL melanoma; MDA-MB-435; MDA-N.
Common to all, as to assay: NCI anticancer screen, dose series, 48 h

Several values for one entry are separate records, joined by “and”; a condition that tells them apart may be missing. Equal values may be shown once.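 Briefly, cells in 96-well plates were exposed to five compound concentrations for 48 h, and endpoints were estimated by linear interpolation. At the GI50, growth is halved. The concentration for full growth arrest is given as TGI.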

On to `C[C@@]12CCCc3coc(c31)C(=O)c1cc3c(cc12)C(=O)C=CC3=O`, for which the GI50 with XF 498 CNS, with HOP-18 NSCLC, with DLD-1 colon, with KM20L2 colon and in the assay on M19-MEL melanoma was above 1 µM in each case. Further, the TGI is > 1 µM and 29.6 µM in the assay on XF 498 CNS; above 1 µM in the assay with SNB-78 CNS; > 1 µM and 28.2 µM with HOP-18 NSCLC; > 1 µM and 6.07 µM in the assay with DLD-1 colon; > 1 µM and 35.1 µM in the assay with KM20L2 colon; > 1 µM and 28 µM in the assay on M19-MEL melanoma.

As for `COc1cc2c(cc1O)C1Cc3ccc(OC)c(O)c3C(C2)N1C` (stereo not given), the TGI with MDA-MB-435 and in the assay with MDA-N was above 100 µM throughout.

On to `O=S1OC2(c3ccccc3-c3ccccc32)c2ccccc21` (stereo not given), for which the TGI in the assay on XF 498 CNS, in the assay on HOP-18 NSCLC, in the assay on DLD-1 colon, in the assay on KM20L2 colon and in the assay on M19-MEL melanoma was above 100 µM each time.

Regarding `N=C(N)SCc1cccc(-c2nc3ccccc3c(=O)o2)c1`, the TGI in the assay with MDA-MB-435 and with MDA-N was above 100 µM throughout.

As to `C[C@]12CC[C@H](O)C[C@H]1CC[C@@H]1[C@@H]2CC[C@]2(C)[C@@H](C3=CC(=O)OC3)CC[C@]12O`, the TGI in the assay on MDA-MB-435 came to 1.02 µM; in the assay on MDA-N it was 0.806 µM.

As for `CC(=O)/C=C/c1ccc(C#Cc2ccccc2)s1`, in the assay on MDA-MB-435, the GI50 is 13.8 µM and the TGI was found to be 29.5 µM.

Turning to `COC(=O)CCC(=O)CC1CC(=O)C2CCCN12` (stereo not given), the TGI in the assay with XF 498 CNS, in the assay with SNB-78 CNS, with HOP-18 NSCLC, in the assay with DLD-1 colon, with KM20L2 colon and in the assay with M19-MEL melanoma was above 100 µM in each case.

In the case of `CC1=NN(C(=O)CC(=O)N(C(=O)c2ccccc2Cl)c2ccc(C)cc2)C(=O)C1N=Nc1ccc([N+](=O)[O-])cc1` (stereo not given), the TGI in the assay with XF 498 CNS is above 100 µM; in the assay on SNB-78 CNS it was above 100 µM; in the assay with HOP-18 NSCLC it was above 100 µM; with DLD-1 colon it was above 66.1 µM; in the assay with KM20L2 colon it was above 90.1 µM.

For the molecule `Nc1nc(CCl)nc(Nc2ccccc2)n1`, the TGI is above 100 µM in the assay with DLD-1 colon, 35.9 µM in the assay with KM20L2 colon and 98.8 µM in the assay on M19-MEL melanoma.

As for `COCCOc1cnc2ccn([C@H](C)c3nnc4c(F)cc(-c5cnn(C)c5)cn34)c(=O)c2c1`, in the assay with MDA-MB-435, the GI50 is above 100 µM and the TGI is above 100 µM.

`CC(C)N=c1cc2n(-c3ccc(Cl)cc3)c3ccccc3nc-2cc1Nc1ccc(Cl)cc1`: in the assay with MDA-MB-435, the GI50 was 1.04 µM and 1.8 µM; the TGI is 2.74 µM and 4.46 µM.

For the molecule `CN(C)C(=S)/N=c1\ss/c(=N\C(=S)N(C)C)n1-c1ccc(Cl)c(Cl)c1`, the TGI in the assay on SNB-78 CNS, in the assay on KM20L2 colon and in the assay with M19-MEL melanoma was above 100 µM throughout.

As for `COc1cc2ncn(-c3cc(OCCc4ccccc4)c(C(N)=O)s3)c2cc1OC`, in the assay with MDA-MB-435, the GI50 is 9.55 µM and the TGI was above 25 µM.

Turning to `CCOC(=O)CNC(=O)c1ccccc1Nc1ccnc(C(F)(F)F)c1`, in the assay with MDA-MB-435, the GI50 is 36.9 µM and the TGI is above 100 µM.

Consider `COc1ccc2c(c1)C(C)Cc1c(ncnc1-n1c(C)nc3ccccc31)N2C` (stereo not given), for which, in the assay on MDA-MB-435, the GI50 was 0.315 µM and the TGI stood at 1.89 µM.

`Cc1cc(C2CC(O)C(CO)O2)cc2c(=O)[nH]c(N)nc12` (stereo not given): in the assay on MDA-MB-435, the GI50 is above 100 µM and the TGI is above 100 µM.

As to `NC(CS/C(Cl)=C/Cl)C(=O)O` (stereo not given), in the assay on MDA-MB-435, the GI50 was 9.25 µM and the TGI turned out to be 31.5 µM.

As for `NC(N)=NCCCCCNc1noc(Cc2c[nH]c3cc(Br)ccc23)n1`, in the assay on MDA-MB-435, the GI50 was 19.3 µM and the TGI amounted to 62.7 µM.

As to `O=C(O)CC[N+]1=CCC(c2ccccc2)(c2ccccc2)O1`, the TGI in the assay on MDA-MB-435 and with MDA-N was above 100 µM in each case.

With `CC(=O)O[C@H](C[C@H](C(C)C)N(C)C(=O)[C@@H](NC(=O)[C@H]1CCCCN1C)C(C)C)c1nc(C(=O)N[C@@H](Cc2ccccc2)C[C@H](C)C(=O)O)c(CCOCc2ccccc2)s1`, in the assay with MDA-MB-435, the GI50 is below 0.001 µM and the TGI was below 0.001 µM.

For `Nc1ccn(C2(CO)C=C(CO)C(O)C2O)c(=O)n1` (stereo not given), the TGI with SNB-78 CNS, in the assay with HOP-18 NSCLC, in the assay with DLD-1 colon, in the assay on KM20L2 colon and in the assay on M19-MEL melanoma was above 25.8 µM in each case.

In the case of `COc1cc(C2=C(c3cn(C)c4ccccc34)COC2=O)cc(OC)c1OC`, in the assay on MDA-MB-435, the GI50 was 0.0244 µM and the TGI is 0.0875 µM.

Regarding `CC1CCC(=O)C(C(=O)CC2CC(=O)NC(=O)C2)C1` (stereo not given), the TGI in the assay with MDA-MB-435 and in the assay on MDA-N was above 100 µM each time.

For `CCC(C)(C)c1ccc(OCCCCCCN2CCNCC2)cc1`, in the assay on MDA-MB-435, the GI50 was 1.54 µM and the TGI came to 3.09 µM.

Turning to `COc1cc(CNc2ccc(SC)cc2)cc(OC)c1OC`, the GI50 was 23.4 µM and 11.1 µM with XF 498 CNS; 12 µM and 5.85 µM in the assay with DLD-1 colon; 1.67 µM and 0.638 µM in the assay with MDA-MB-435; 3.35 µM and 1.05 µM in the assay with MDA-N. The TGI is 91.2 µM and 40 µM with XF 498 CNS; above 100 µM with SNB-78 CNS; above 100 µM in the assay with HOP-18 NSCLC; above 100 µM with DLD-1 colon; 80 µM with MDA-MB-435; 19.5 µM and 23.3 µM with KM20L2 colon. The molecule further had a TGI in the assay on MDA-N of 7.15 µM.

On to `COc1ccc(-c2oc3cc(O)c(OC)c(O)c3c(=O)c2OC)cc1O`, for which, in the assay on MDA-MB-435, the GI50 is 0.025 µM and the TGI turned out to be 0.0674 µM.

Regarding `CCOC(=O)c1c[nH]c2oc(/C=N/N3CC(CN4CCOCC4)OC3=O)cc2c1=O` (stereo not given), the TGI in the assay with MDA-MB-435 and in the assay with MDA-N was above 100 µM throughout.

As for `O=C(Nc1ccc(CO)cc1)c1coc2ccccc2c1=O`, in the assay on MDA-MB-435, the GI50 is above 100 µM and the TGI is above 100 µM.

Turning to `O=[N+]([O-])c1ccc2c(c1)C(c1ccccc1Cl)=Nc1cn[nH]c1N2`, in the assay on MDA-MB-435, the GI50 was 15.1 µM and the TGI was above 25 µM.

For `Cn1cc(C2=C(c3cn(CCCCCN)c4ccccc34)C(=O)NC2=O)c2ccccc21`, in the assay on MDA-MB-435, the GI50 was 2.4 µM and the TGI is above 25 µM.

In the case of `O=C(CSC(c1ccccc1)c1ccccc1)N/N=C/c1ccc(Cl)cc1Cl`, in the assay on MDA-MB-435, the GI50 is 29.6 µM and the TGI came out at 79.2 µM.

Values taken from PubChem BioAssay (NCI).
